Experimental data reported in patent publication US10844077B2, “Thiazolyl-containing compounds for treating proliferative diseases” (Dana-Farber Cancer Institute, Inc., priority 2014, dated 2020).
Where “and” joins values, the source holds several entries; their conditions need not be identical. Equal values may be shown once. Read-outs that look alike come from different tables or passages of the source.

What was measured:
Type in all cases: cell-based
kinases in BCWM.1 cells [1] = molecular target: kinases in BCWM.1 cells (Homo sapiens, UniProt O75385); experiment: KINATIV assay of compounds I-3 and I-9, lysate directly labeled with ATP-biotin probe (no GF); conditions: ULK1; Lys2; 1 μM, 90 min; no GF
Method: (§1) The cells were harvested and lysed. […] Bound kinases were identified and quantitated by ACTIVX as described in Patricelli et al., Biochemistry, 2007, 46(2): 350-358. The compounds were tested in duplicates against duplicate or quadruplicate control samples.

kinases in BCWM.1 cells [2] = molecular target: kinases in BCWM.1 cells (Homo sapiens, UniProt O95819); experiment: as above; conditions: ZC1/HGK; Lys1; 1 μM, 90 min; no GF
kinases in BCWM.1 cells (Homo sapiens, UniProt O95819), sequence (O95819 2-1239 limits assumed): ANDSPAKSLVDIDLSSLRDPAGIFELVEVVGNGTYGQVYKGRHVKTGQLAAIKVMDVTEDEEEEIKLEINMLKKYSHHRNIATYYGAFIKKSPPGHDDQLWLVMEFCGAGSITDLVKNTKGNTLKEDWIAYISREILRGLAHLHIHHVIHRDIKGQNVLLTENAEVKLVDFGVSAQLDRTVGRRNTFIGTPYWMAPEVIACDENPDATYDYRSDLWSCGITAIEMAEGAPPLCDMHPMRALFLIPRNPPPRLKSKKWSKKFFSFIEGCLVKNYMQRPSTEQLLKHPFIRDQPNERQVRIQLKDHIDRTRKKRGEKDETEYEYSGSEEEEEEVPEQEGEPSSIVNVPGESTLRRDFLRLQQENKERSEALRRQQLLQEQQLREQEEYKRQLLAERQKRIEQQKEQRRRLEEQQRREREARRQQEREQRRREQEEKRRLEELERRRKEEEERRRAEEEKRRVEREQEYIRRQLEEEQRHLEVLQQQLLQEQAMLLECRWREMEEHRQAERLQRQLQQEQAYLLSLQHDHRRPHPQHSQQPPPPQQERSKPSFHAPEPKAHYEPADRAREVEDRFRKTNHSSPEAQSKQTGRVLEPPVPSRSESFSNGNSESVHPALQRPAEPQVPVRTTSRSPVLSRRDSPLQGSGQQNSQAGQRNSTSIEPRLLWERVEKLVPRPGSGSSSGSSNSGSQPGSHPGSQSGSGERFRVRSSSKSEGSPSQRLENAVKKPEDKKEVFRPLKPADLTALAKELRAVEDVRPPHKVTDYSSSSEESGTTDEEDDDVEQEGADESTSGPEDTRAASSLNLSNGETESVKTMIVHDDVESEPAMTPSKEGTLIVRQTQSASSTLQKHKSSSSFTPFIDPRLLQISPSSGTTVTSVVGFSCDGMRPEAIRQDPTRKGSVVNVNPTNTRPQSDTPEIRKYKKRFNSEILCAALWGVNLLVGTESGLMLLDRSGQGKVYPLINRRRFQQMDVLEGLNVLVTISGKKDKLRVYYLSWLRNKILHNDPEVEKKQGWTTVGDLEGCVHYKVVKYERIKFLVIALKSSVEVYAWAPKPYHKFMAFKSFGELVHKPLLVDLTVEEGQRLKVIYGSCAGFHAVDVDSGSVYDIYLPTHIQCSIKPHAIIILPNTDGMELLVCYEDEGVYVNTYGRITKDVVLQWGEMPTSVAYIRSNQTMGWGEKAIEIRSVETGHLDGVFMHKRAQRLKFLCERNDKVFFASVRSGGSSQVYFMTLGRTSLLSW
Method: as §1

kinases in BCWM.1 cells [3] = molecular target: kinases in BCWM.1 cells (Homo sapiens, UniProt P21127); experiment: as above; conditions: PITSLRE; Lys2; 1 μM, 90 min; no GF
Method: as §1

kinases in BCWM.1 cells [4] = molecular target: kinases in BCWM.1 cells (Homo sapiens, UniProt P42338); experiment: as above; conditions: PIK3CB; ATP; 1 μM, 90 min; no GF
Method: as §1

kinases in BCWM.1 cells [5] = molecular target: T1, kinases in BCWM.1 cells (Homo sapiens, UniProt P42680); experiment: as above; conditions: TEC; Activation Loop; 1 μM, 90 min; no GF
Method: as §1

kinases in BCWM.1 cells [6] = molecular target: T2, kinases in BCWM.1 cells (Homo sapiens, UniProt P48736); experiment: as above; conditions: PIK3CG; ATP; 1 μM, 90 min; no GF
Method: as §1

kinases in BCWM.1 cells [7] = molecular target: kinases in BCWM.1 cells (Homo sapiens, UniProt Q15208); experiment: as above; conditions: NDR1; Lys2; 1 μM, 90 min; no GF
kinases in BCWM.1 cells (Homo sapiens, UniProt Q15208), sequence (Q15208 2-465 limits assumed): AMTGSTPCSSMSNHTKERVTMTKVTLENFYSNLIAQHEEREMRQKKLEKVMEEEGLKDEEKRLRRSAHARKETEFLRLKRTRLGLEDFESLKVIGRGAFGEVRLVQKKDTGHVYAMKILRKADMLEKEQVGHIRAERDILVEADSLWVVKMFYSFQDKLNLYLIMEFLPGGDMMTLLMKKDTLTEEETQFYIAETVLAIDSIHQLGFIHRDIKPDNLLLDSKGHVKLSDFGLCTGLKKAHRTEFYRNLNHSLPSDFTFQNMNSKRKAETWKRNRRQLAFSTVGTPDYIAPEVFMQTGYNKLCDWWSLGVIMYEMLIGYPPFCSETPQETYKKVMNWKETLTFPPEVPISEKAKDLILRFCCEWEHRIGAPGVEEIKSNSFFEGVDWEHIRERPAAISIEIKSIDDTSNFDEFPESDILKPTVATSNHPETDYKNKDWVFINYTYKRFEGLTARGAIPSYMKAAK
Method: as §1

kinases in BCWM.1 cells [8] = molecular target: T3, kinases in BCWM.1 cells (Homo sapiens, UniProt Q16539); experiment: as above; conditions: p38a, 1 μM, 90 min, no GF
T3 sequence (Q16539 2-360 limits assumed): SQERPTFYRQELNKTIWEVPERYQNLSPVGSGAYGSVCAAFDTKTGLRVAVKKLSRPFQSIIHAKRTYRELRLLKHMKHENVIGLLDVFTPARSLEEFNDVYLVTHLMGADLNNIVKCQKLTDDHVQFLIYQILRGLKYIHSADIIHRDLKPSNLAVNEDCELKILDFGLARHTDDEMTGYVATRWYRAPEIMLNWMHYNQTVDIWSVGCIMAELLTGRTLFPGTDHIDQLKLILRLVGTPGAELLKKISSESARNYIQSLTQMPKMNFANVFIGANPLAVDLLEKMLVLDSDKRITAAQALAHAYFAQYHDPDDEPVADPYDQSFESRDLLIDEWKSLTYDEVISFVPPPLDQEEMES
Method: as §1

kinases in BCWM.1 cells [9] = molecular target: kinases in BCWM.1 cells (Homo sapiens, UniProt Q58A45); experiment: as above; conditions: PAN3; Protein Kinase Domain; 1 μM, 90 min; no GF
Method: as §1

kinases in BCWM.1 cells [10] = molecular target: kinases in BCWM.1 cells (Homo sapiens, UniProt Q8TD19); experiment: as above; conditions: NEK9; Lys2; 1 μM, 90 min; no GF
kinases in BCWM.1 cells (Homo sapiens, UniProt Q8TD19), sequence (Q8TD19 2-979 limits assumed): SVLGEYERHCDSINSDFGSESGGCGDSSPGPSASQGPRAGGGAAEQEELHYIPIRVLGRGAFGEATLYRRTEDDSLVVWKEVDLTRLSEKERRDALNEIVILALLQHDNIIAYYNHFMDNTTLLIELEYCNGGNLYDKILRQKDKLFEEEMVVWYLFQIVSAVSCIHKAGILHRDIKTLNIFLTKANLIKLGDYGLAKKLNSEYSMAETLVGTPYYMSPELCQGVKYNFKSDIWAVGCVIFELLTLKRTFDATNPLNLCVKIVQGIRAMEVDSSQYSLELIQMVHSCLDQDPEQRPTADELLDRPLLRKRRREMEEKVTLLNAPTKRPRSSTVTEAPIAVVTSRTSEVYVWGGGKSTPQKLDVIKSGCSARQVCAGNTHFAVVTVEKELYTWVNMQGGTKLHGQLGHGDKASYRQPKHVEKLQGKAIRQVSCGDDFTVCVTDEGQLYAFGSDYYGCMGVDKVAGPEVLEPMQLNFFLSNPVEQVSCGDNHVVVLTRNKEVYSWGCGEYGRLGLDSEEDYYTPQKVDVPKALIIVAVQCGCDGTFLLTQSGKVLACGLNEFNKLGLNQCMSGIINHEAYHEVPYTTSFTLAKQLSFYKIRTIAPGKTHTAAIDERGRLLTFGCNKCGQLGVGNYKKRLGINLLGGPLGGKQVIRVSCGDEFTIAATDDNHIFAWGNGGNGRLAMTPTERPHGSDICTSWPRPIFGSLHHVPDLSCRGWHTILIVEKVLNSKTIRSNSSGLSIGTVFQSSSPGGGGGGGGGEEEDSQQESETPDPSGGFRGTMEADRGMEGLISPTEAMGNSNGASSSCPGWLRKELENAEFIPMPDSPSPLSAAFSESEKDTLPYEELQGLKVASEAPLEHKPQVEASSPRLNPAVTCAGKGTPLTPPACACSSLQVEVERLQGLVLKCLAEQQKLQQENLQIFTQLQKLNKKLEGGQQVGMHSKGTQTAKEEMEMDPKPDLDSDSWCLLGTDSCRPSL
Method: as §1

kinases in BCWM.1 cells [11] = molecular target: kinases in BCWM.1 cells (Homo sapiens, UniProt Q96BR1); experiment: as above; conditions: SGK3; Lys1; 1 μM, 90 min; no GF
Method: as §1

kinases in BCWM.1 cells [12] = molecular target: kinases in BCWM.1 cells (Homo sapiens, UniProt Q9NYL2); experiment: as above; conditions: ZAK; Lys1; 1 μM, 90 min; no GF
Method: as §1

kinases in BCWM.1 cells [13] = molecular target: kinases in BCWM.1 cells (Homo sapiens, UniProt Q9NZJ5); experiment: as above; conditions: PEK; Lys2; 1 μM, 90 min; no GF
kinases in BCWM.1 cells (Homo sapiens, UniProt Q9NZJ5), sequence (Q9NZJ5 30-1116 limits assumed): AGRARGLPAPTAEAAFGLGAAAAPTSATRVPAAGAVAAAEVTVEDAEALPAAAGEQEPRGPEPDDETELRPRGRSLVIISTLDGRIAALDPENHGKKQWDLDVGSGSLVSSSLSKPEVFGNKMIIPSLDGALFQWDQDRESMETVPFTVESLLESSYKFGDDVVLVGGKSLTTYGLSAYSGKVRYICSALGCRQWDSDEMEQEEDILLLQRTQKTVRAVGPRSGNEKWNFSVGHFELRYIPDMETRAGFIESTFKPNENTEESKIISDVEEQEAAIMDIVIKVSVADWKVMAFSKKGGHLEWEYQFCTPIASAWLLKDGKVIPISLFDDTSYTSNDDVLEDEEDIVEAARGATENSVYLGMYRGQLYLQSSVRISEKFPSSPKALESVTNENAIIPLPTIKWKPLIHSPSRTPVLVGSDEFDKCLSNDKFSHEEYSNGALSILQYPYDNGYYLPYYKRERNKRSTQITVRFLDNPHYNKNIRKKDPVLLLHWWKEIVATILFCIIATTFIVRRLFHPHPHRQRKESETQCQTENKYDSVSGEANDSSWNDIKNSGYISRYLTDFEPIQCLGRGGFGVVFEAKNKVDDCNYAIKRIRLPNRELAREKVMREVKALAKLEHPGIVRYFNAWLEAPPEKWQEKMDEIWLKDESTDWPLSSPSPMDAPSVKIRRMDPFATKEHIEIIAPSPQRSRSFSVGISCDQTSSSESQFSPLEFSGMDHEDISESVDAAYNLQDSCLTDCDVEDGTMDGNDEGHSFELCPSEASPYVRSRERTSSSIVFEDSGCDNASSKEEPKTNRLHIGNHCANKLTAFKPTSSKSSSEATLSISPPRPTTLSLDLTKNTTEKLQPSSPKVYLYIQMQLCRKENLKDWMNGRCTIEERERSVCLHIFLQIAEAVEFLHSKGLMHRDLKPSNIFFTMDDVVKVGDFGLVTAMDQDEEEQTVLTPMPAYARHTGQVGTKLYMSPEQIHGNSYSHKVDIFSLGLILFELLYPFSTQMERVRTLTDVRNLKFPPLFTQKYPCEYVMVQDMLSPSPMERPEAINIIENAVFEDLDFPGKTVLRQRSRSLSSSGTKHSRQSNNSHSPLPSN
Method: as §1

kinases in BCWM.1 cells [14] = molecular target: kinases in BCWM.1 cells (Homo sapiens, UniProt Q9UBE8); experiment: as above; conditions: NLK; Lys2; 1 μM, 90 min; no GF
Method: as §1

kinases in BCWM.1 cells [15] = molecular target: kinases in BCWM.1 cells (Homo sapiens, UniProt Q9UHD2); experiment: as above; conditions: TBK1; Lys1; 1 μM, 90 min; no GF
Method: as §1

kinases in BCWM.1 cells [16] = experiment: as above; conditions: 1 μM, no GF
Method: as §1

kinases in BCWM.1 cells [17] = molecular target: kinases in BCWM.1 cells (Homo sapiens, UniProt O00750); conditions: PIK3C2B; ATP; 1 μM, 90 min; GF
Method: as §1

kinases in BCWM.1 cells [18] = molecular target: kinases in BCWM.1 cells (Homo sapiens, UniProt O43318); conditions: TAK1; Lys2; 1 μM, 90 min; GF
Method: as §1

kinases in BCWM.1 cells [19] = molecular target: kinases in BCWM.1 cells (Homo sapiens, UniProt P04049); conditions: RAF1; Lys2; 1 μM, 90 min; GF
Method: as §1

kinases in BCWM.1 cells [20] = molecular target: kinases in BCWM.1 cells (Homo sapiens, UniProt P23443); conditions: p70S6K; Lys2; 1 μM, 90 min; GF
Method: as §1

kinases in BCWM.1 cells [21] = molecular target: T1, kinases in BCWM.1 cells; conditions: TEC; Activation Loop; 1 μM, 90 min; GF
Method: as §1

kinases in BCWM.1 cells [22] = molecular target: T2, kinases in BCWM.1 cells; conditions: PIK3CG; ATP; 1 μM, 90 min; GF
Method: as §1

kinases in BCWM.1 cells [23] = molecular target: kinases in BCWM.1 cells (Homo sapiens, UniProt Q13523); conditions: PRP4; Lys2; 1 μM, 90 min; GF
Method: as §1

kinases in BCWM.1 cells [24] = molecular target: T3, kinases in BCWM.1 cells; conditions: p38a, 1 μM, 90 min, GF
Method: as §1

kinases in BCWM.1 cells [25] = molecular target: kinases in BCWM.1 cells (Homo sapiens, UniProt Q86SG6); conditions: NEK8; Lys2; 1 μM, 90 min; GF
Method: as §1

kinases in BCWM.1 cells [26] = molecular target: kinases in BCWM.1 cells (Homo sapiens, UniProt Q9Y2H1); conditions: NDR2; Lys2; 1 μM, 90 min; GF
kinases in BCWM.1 cells (Homo sapiens, UniProt Q9Y2H1), sequence (Q9Y2H1 2-464 limits assumed): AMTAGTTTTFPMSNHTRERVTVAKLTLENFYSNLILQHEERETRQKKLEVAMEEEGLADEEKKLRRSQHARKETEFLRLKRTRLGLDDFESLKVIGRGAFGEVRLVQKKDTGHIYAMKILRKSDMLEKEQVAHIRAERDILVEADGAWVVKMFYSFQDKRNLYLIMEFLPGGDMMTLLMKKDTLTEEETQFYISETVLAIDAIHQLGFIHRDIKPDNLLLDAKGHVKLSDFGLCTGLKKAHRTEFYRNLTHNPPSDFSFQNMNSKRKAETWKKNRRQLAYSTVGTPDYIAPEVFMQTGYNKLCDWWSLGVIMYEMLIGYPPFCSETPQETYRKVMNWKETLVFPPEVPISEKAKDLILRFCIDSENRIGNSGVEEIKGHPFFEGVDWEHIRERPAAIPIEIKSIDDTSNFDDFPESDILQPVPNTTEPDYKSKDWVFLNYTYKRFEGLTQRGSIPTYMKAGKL
Method: as §1

C=CC(=O)N1CC[C@H](Nc2nccc(Nc3ncc(C(=O)Nc4c(C)cccc4C)s3)n2)C1 [Example I-3]
% change of MS signal compared to control sample (kinases in BCWM.1 cells [1]): 9.9% | % change of MS signal compared to control sample (kinases in BCWM.1 cells [2]): −14.8% | % change of MS signal compared to control sample (kinases in BCWM.1 cells [3]): −14.1% | % change of MS signal compared to control sample (kinases in BCWM.1 cells [4]): −9.1% | % change of MS signal compared to control sample (kinases in BCWM.1 cells [5]): >91% | % change of MS signal compared to control sample (kinases in BCWM.1 cells [6]): −9.6% | % change of MS signal compared to control sample (kinases in BCWM.1 cells [7]): 2.3% | % change of MS signal compared to control sample (kinases in BCWM.1 cells [8]; Lys2): 43.5% | % change of MS signal compared to control sample (kinases in BCWM.1 cells [8]; Protein Kinase Domain): 32.6% | % change of MS signal compared to control sample (kinases in BCWM.1 cells [9]): −17.5% | % change of MS signal compared to control sample (kinases in BCWM.1 cells [10]): 15.4% | % change of MS signal compared to control sample (kinases in BCWM.1 cells [11]): −0.4% | % change of MS signal compared to control sample (kinases in BCWM.1 cells [12]): 1.6% | % change of MS signal compared to control sample (kinases in BCWM.1 cells [13]): −12.8% | % change of MS signal compared to control sample (kinases in BCWM.1 cells [14]): 66.2% | % change of MS signal compared to control sample (kinases in BCWM.1 cells [15]): −25.1% | % change of MS signal compared to control sample (kinases in BCWM.1 cells [16]; ABL, ARG, Activation Loop): 75.4% and 93.5% | % change of MS signal compared to control sample (kinases in BCWM.1 cells [16]; ABL, ARG, Lys1): 86.9% and 93.2% | % change of MS signal compared to control sample (kinases in BCWM.1 cells [16]; AKT2, AKT3, ATP Loop): −19.2% and −14.5% | % change of MS signal compared to control sample (kinases in BCWM.1 cells [16]; AurA, AurB, AurC, ATP Loop): 7.7% and 4.7% | % change of MS signal compared to control sample (kinases in BCWM.1 cells [16]; FYN, SRC, YES, Activation Loop): 87.3% and 85.7% | % change of MS signal compared to control sample (kinases in BCWM.1 cells [16]; MARK3, MARK4, Lys1): 2.5% and −4% | % change of MS signal compared to control sample (kinases in BCWM.1 cells [16]; MER, TYRO3, Activation Loop): 2.4% and 0.4% | % change of MS signal compared to control sample (kinases in BCWM.1 cells [16]; MST4, YSK1, Lys2, 90 min): 18.1% | % change of MS signal compared to control sample (kinases in BCWM.1 cells [16]; NEK6, NEK7, Lys2, 90 min): 6.4% | % change of MS signal compared to control sample (kinases in BCWM.1 cells [16]; PCTAIRE2, PCTAIRE3, Lys1, 90 min): −0.4% | % change of MS signal compared to control sample (kinases in BCWM.1 cells [16]; PI4KA, PI4KAP2, ATP, 90 min): −3.7% | % change of MS signal compared to control sample (kinases in BCWM.1 cells [16]; PKACa, PKCb, Lys2, 90 min): 2.4% | % change of MS signal compared to control sample (kinases in BCWM.1 cells [16]; ROCK1, ROCK2, Lys2, 90 min): −22.2% | % change of MS signal compared to control sample (kinases in BCWM.1 cells [16]; RSK1 domain1, RSK2 domain1, RSK3 domain1, Lys2, 90 min): −14.8% | % change of MS signal compared to control sample (kinases in BCWM.1 cells [16]; SRPK1, SRPK2, Lys1, 90 min): −3% | % change of MS signal compared to control sample (kinases in BCWM.1 cells [16]; TAO1, TAO3, Lys2, 90 min): 7.8% | % change of MS signal compared to control sample (kinases in BCWM.1 cells [16]; Wnk1, Wnk2, Wnk3, Lys2, 90 min): 14.9% | % change of MS signal compared to control sample (kinases in BCWM.1 cells [16]; Wnk1, Wnk2, ATP Loop, 90 min): 13.1% | % change of MS signal compared to control sample (kinases in BCWM.1 cells [16]; ZC1/HGK, ZC2/TNIK, ZC3/MINK, Lys2, 90 min): 2.7% | % change of MS signal compared to control sample (kinases in BCWM.1 cells [16]; p38d, p38g, Lys2, 90 min): 5.7% | % change of MS signal compared to control sample (kinases in BCWM.1 cells [17]): 39.1% | % change of MS signal compared to control sample (kinases in BCWM.1 cells [18]): −2.5% | % change of MS signal compared to control sample (kinases in BCWM.1 cells [19]): 9.9% | % change of MS signal compared to control sample (kinases in BCWM.1 cells [20]): −51.5% | % change of MS signal compared to control sample (kinases in BCWM.1 cells [21]): >91% | % change of MS signal compared to control sample (kinases in BCWM.1 cells [22]): −3.4% | % change of MS signal compared to control sample (kinases in BCWM.1 cells [23]): −6.2% | % change of MS signal compared to control sample (kinases in BCWM.1 cells [24]; Lys2): 70% | % change of MS signal compared to control sample (kinases in BCWM.1 cells [24]; Protein Kinase Domain): 67.9% | % change of MS signal compared to control sample (kinases in BCWM.1 cells [25]): −14.5% | % change of MS signal compared to control sample (kinases in BCWM.1 cells [26]): −9.6%
